This is an account of results in patent US12134611B2, “Compounds and compositions for treating conditions associated with NLRP activity” (Novartis AG, priority 2018, dated 2024).

The target of the test is T1, hNLRP3 (Homo sapiens, UniProt Q96P20).
T1 construct: THP-1 cells were purchased from the American Type Culture Collection; host or cells: THP-1 cells, PMA-differentiated, stimulated with gramicidin
T1 sequence (Q96P20 whole entry): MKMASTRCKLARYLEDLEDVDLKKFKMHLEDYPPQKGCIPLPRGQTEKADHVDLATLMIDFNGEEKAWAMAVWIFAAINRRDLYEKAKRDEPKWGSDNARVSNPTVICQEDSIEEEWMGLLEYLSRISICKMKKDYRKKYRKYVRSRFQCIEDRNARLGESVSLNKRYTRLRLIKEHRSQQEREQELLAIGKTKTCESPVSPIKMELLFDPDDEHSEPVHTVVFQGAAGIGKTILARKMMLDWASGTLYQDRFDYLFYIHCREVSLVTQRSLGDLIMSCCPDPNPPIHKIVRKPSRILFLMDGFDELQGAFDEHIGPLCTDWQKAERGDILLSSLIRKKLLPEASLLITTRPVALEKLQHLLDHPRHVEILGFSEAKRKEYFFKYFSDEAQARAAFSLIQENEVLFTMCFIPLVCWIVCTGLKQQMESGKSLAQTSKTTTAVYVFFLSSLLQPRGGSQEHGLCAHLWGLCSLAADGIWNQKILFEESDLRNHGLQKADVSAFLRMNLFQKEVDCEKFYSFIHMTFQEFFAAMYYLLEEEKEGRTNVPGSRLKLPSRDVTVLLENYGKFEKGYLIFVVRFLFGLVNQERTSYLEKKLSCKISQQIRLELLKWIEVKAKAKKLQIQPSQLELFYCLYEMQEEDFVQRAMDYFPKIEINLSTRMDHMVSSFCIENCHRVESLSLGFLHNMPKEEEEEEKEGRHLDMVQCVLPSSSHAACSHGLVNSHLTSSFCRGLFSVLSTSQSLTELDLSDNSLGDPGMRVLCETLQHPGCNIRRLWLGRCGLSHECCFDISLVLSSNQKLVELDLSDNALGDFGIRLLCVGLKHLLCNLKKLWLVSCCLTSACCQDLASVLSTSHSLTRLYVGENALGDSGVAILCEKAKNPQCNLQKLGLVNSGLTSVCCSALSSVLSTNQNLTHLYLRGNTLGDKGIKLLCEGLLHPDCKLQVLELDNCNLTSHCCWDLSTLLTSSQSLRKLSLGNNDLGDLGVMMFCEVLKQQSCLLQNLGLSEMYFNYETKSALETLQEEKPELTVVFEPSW
The test can be described thus: IL-1β production in PMA-differentiated THP-1 cells stimulated with gramicidin (hTHP-1 assay). The class given is cell-based. The settings on record: read-out: NLRP3 Antagonist, hNLRP3 (THP-1, IL-1b) Normalized: GeoMean IC50. The procedure: Procedure 1: IL-1β Production in PMA-Differentiated THP-1 Cells Stimulated with Gramicidin.
THP-1 cells were purchased from the American Type Culture Collection and sub-cultured according to instructions from the supplier. […] Prior to the experiment, compounds were dissolved in dimethyl sulfoxide (DMSO) to generate a 30 mM stock. […] DMSO was backfilled in the plate to achieve a final DMSO assay concentration of 0.37%. The plate was then sealed and stored at room temperature until required.
THP-1 cells were treated with PMA (Phorbol 12-myristate 13-acetate) (20 ng/ml) for 16-18 hours. On the day of the experiment the media was removed and adherent cells were detached with trypsin for 5 minutes.
Procedure 2: IL-1β Production in PMA-Differentiated THP-1 Cells Stimulated with Gramicidin.
THP-1 cells were purchased from the American Type Culture Collection and sub-cultured according to instructions from the supplier. […] Prior to the experiment THP-1 were treated with PMA (Phorbol 12-myristate 13-acetate) (20 ng/ml) for 16-18 hours. Compounds were dissolved in dimethyl sulfoxide (DMSO) to generate a 30 mM stock. On the day of the experiment the media was removed and adherent cells were detached with trypsin for 5 minutes. […] Final DMSO concentration was at 0.37%. Cells were incubated with compounds for 1 hour and then stimulated with gramicidin (5 μM) (Enzo) for 2 hours. Plates were then centrifuged at 340 g for 5 min. Cell free supernatant (40 μL) was collected using a 96-channel PlateMaster (Gilson) and the production of IL-1β was evaluated by HTRF (cisbio).
1. Experimental procedure
1.2 Compound Preparation • Prepare the 3-fold serial dilution of the compounds with DMSO in a 384-well LDV Microplate using TECAN EVO system to generate the compound source plate with 10 concentrations. Top concentration is 30 mM. FIG. 5 depicts the layout of the microplate.
FIG. 5 depicts the layout of the plates: HC: 100 μM CRID3 (MCC950)+5 μM gramicidin LC: 5 μM Gramicidin.
1.5 IL-1β Detection • 1) Homogenize the 5× diluent #5 with a vortex and add 1 volume of stock solution in 4 volumes of distilled water. • 2) Thaw 20× stock solution of anti-IL1β-Cryptate-antibody and anti-IL1β XL-antibody. […] 2. Data Analysis: • 1.
One may read the IC50 as the concentration that gives 50% inhibition. Take `O=C(N=S1(=O)NC(=O)c2ccccc21)Nc1c2c(cc3c1CCC3)CCC2` (single isomer, unassigned) [Compound 129b, 3-[(1S or 1R)-1,3-dioxo-2,3-dihydro-1-^λ-6,2-benzothiazol-1-ylidene]-1-(1,2,3,5,6,7-hexahydro-s-indacen-4-yl)urea]: the IC50 lay in the range of 5 to 30 µM.
For `O=C(N=S1(=O)NCc2ccccc21)Nc1c2c(cc3c1CCC3)CCC2` (single isomer, unassigned) [Compound 130a, 1-(1,2,3,5,6,7-hexahydro-s-indacen-4-yl)-3-[(1S or 1R)-1-oxo-2,3-dihydro-1-^λ-6,2-benzothiazol-1-ylidene]urea] the value was more than 30 µM; for `O=C1CCS(=O)(=NC(=O)Nc2c3c(cc4c2CCC4)CCC3)N1` (single isomer, unassigned) [Compound 131a, (R or S)-1-(1,2,3,5,6,7-hexahydro-s-indacen-4-yl)-3-(1-oxido-3-oxo-1l6-isothiazolidin-1-ylidene)urea], 1 to 5 µM; for `O=C(N=S1(=O)CC2(COC2)C(=O)N1)Nc1c2c(cc3c1CCC3)CCC2` (single isomer, unassigned) [Compound 132a, (S or R)-1-(1,2,3,5,6,7-hexahydro-s-indaccn-4-yl)-3-(6-oxido-8-oxo-2-oxa-6l6-thia-7-azaspiro[3.4]octan-6-ylidene)urea], 1 to 5 µM.
The same measure for `O=C(N=S1(=O)CC2(COC2)C(=O)N1)Nc1c2c(cc3c1CCC3)CCC2` (single isomer, unassigned) [Compound 132b, (R or S)-1-(1,2,3,5,6,7-hexahydro-s-indacen-4-yl)-3-(6-oxido-8-oxo-2-oxa-6l6-thia-7-azaspiro[3.4]octan-6-ylidene)urea]: 5 to 30 µM; for `CN(C)Cc1ccc2c(c1)S(=O)(=NC(=O)Nc1c3c(cc4c1CCC4)CCC3)NC2` (single isomer, unassigned) [Compound 133a, (R or S)-1-(6-((dimethylamino)methyl)-1-oxido-2,3-dihydro-1l4-benzo[d]isothiazol-1-ylidene)-3-(1,2,3,5,6,7-hexahydro-s-indacen-4-yl)urea]: 5 to 30 µM.
The same measure for `CN(C)Cc1ccc2c(c1)S(=O)(=NC(=O)Nc1c3c(cc4c1CCC4)CCC3)NC2` (single isomer, unassigned) [Compound 133b, (S or R)-1-(6-((dimethylamino)methyl)-1-oxido-2,3-dihydro-1l4-benzo[d]isothiazol-1-ylidene)-3-(1,2,3,5,6,7-hexahydro-s-indacen-4-yl)urea]: more than 30 µM; for `COC(=O)c1ccc2c(c1)S(=O)(=NC(=O)Nc1c3c(cc4c1CCC4)CCC3)NC2=O` (single isomer, unassigned) [Compound 134a, methyl (R or S)-1-(((1,2,3,5,6,7-hexahydro-s-indacen-4-yl)carbamoyl)imino)-3-oxo-2,3-dihydro-1H-1l4-benzo[d]isothiazole-6-carboxylate 1-oxide]: more than 30 µM.
Regarding `COC(=O)c1ccc2c(c1)S(=O)(=NC(=O)Nc1c3c(cc4c1CCC4)CCC3)NC2=O` (single isomer, unassigned) [Compound 134b, methyl (S or R)-1-(((1,2,3,5,6,7-hexahydro-s-indacen-4-yl)carbamoyl)imino)-3-oxo-2,3-dihydro-1H-1l4-benzo[d]isothiazole-6-carboxylate 1-oxide], the IC50 lay within 5 to 30 µM.
For `CC(C)(O)c1ccc2c(c1)S(=O)(=NC(=O)Nc1c3c(nc4c1CCC4)CCC3)NC2=O` (single isomer, unassigned) [Compound 136, (S or R)-1-(1,2,3,5,6,7-hexahydrodicyclopenta[b,e]pyridin-8-yl)-3-(6-(2-hydroxypropan-2-yl)-1-oxido-3-oxo-2,3-dihydro-1l4-benzo[d]isothiazol-1-ylidene)urea], the concentration for half-maximal inhibition (IC50) was in the range of 0.2 to 1 µM.
For `CC(C)(O)c1ccc2c(c1)S(=O)(=NC(=O)Nc1c3c(nc4c1CCC4(C)C)CCC3)NC2=O` (single isomer, unassigned) [Compound 137, (S or R)-1-(3,3-dimethyl-1,2,3,5,6,7-hexahydrodicyclopenta[b,e]pyridin-8-yl)-3-(6-(2-hydroxypropan-2-yl)-1-oxido-3-oxo-2,3-dihydro-1l4-benzo[d]isothiazol-1-ylidene)urea], the IC50 was 0.2 to 1 µM.
For the compound `Cc1c(C2CC2)nc2c(c1NC(=O)N=S1(=O)NC(=O)c3ccc(C(C)(C)O)cc31)CCC2` (single isomer, unassigned) [Compound 138, (S or R)-1-(2-cyclopropyl-3-methyl-6,7-dihydro-5H-cyclopenta[b]pyridin-4-yl)-3-(6-(2-hydroxypropan-2-yl)-1-oxido-3-oxo-2,3-dihydro-1l4-benzo[d]isothiazol-1-ylidene)urea], the concentration for half-maximal inhibition (IC50) is 0.2 to 1 µM.
The same measure for `O=C(N=S1(=O)CC2(CN1)COC2)Nc1c2c(cc3c1CCC3)CCC2` (single isomer, unassigned) [Compound 139a, (S or R)-1-(1,2,3,5,6,7-hexahydro-s-indacen-4-yl)-3-(6-oxido-2-oxa-6l6-thia-7-azaspiro[3.4]octan-6-ylidene)urea]: more than 30 µM; for `CC(O)(CO)c1ccc2c(c1)S(=O)(=NC(=O)Nc1c3c(cc4c1CCC4)CCC3)NC2=O` (single isomer, unassigned) [Compound 208a, 1-((1R or S)-6-(1,2-dihydroxypropan-2-yl)-1-oxido-3-oxo-2,3-dihydro-1l4-benzo[d]isothiazol-1-ylidene)-3-(1,2,3,5,6,7-hexahydro-s-indacen-4-yl)urea]: 1 to 5 µM.
Regarding `CC(O)(CO)c1ccc2c(c1)S(=O)(=NC(=O)Nc1c3c(cc4c1CCC4)CCC3)NC2=O` (single isomer, unassigned) [Compound 208b, 1-((1S or R)-6-(1,2-dihydroxypropan-2-yl)-1-oxido-3-oxo-2,3-dihydro-1l4-benzo[d]isothiazol-1-ylidene)-3-(1,2,3,5,6,7-hexahydro-s-iadacen-4-yl)urea], the IC50 is 0.04 to 0.2 µM.
Turning to `O=C(N=S1(=O)NC(=O)c2ccc(-n3cccn3)cc21)Nc1c2c(cc3c1CCC3)CCC2` (single isomer, unassigned) [Compound 211a, (S or R)-1-(1,2,3,5,6,7-hexahydro-s-indacen-4-yl)-3-(1-oxido-3-oxo-6-(1H-pyrazol-1-yl)-2,3-dihyclro-1l4-benzo[d]isothiazol-1-ylidene)urea], the IC50 was in the range of 5 to 30 µM.
The same measure for `O=C(N=S1(=O)NC(=O)c2ccc(-n3cccn3)cc21)Nc1c2c(cc3c1CCC3)CCC2` (single isomer, unassigned) [Compound 211b, (R or S)-1-(1,2,3,5,6,7-hexahydro-s-indacen-4-yl)-3-(1-oxido-3-oxo-6-(1H-pyrazol-1-yl)-2,3-dihydro-1l4-benzo[d]isothiazol-1-ylidene)urea]: more than 30 µM.
For `O=C(N=S1(=O)NC(=O)c2cccnc21)Nc1c2c(cc3c1CCC3)CCC2` (single isomer, unassigned) [Compound 223a, (S or S)-1-(1,2,3,5,6,7-hexahydro-s-indacen-4-yl)-3-(1-oxido-3-oxo-2,3-dihydro-1l4-isothiazolo[5,4-b]pyridin-1-ylidene)urea] the value was 1 to 5 µM; for `O=C(N=S1(=O)NC(=O)c2cccnc21)Nc1c2c(cc3c1CCC3)CCC2` (single isomer, unassigned) [Compound 223b, (R or S)-1-(1,2,3,5,6,7-hexahydro-s-indacen-4-yl)-3-(1-oxido-3-oxo-2,3-dihydro-1l4-isothiazolo[5,4-b]pyridin-1-ylidene)urea], 5 to 30 µM.
The same measure for `O=C(N=S1(=O)CC(Cc2ccccc2)C(=O)N1)Nc1c2c(cc3c1CCC3)CCC2` (single isomer, unassigned) [Compound 249a, 1-((1R,4S or 4R)-4-benzyl-1-oxido-3-oxo-1l6-isothiazolidin-1-ylidene)-3-(1,2,3,5,6,7-hexahydro-s-indacen-4-yl)urea]: 0.2 to 1 µM.
With `O=C1CC(Cc2ccccc2)S(=O)(=NC(=O)Nc2c3c(cc4c2CCC4)CCC3)N1` (centres unmarked) [Compound 101, 1-(5-benzyl-1-oxido-3-oxo-1l6-isothiazolidin-1-ylidene)-3-(1,2,3,5,6,7-hexahydro-s-indacen-4-yl)urea], the half-maximal inhibitory concentration (IC50) lay in the range of 1 to 5 µM.
The same measure for `CC1(C)CS(=O)(=NC(=O)Nc2c3c(cc4c2CCC4)CCC3)NC1=O` (centres unmarked) [Compound 102, 1-(4,4-dimethyl-1-oxido-3-oxo-1l6-isothiazolidin-1-ylidene)-3-(1,2,3,5,6,7-hexahydro-s-indacen-4-yl)urea]: 0.2 to 1 µM; for `O=C(N=S1(=O)NC(=O)c2ccc(Br)cc21)Nc1c2c(cc3c1CCC3)CCC2` (centres unmarked) [Compound 103, 1-(6-bromo-1-oxido-3-oxo-2,3-dihydro-1l4-benzo[d]isothiazol-1-ylidene)-3-(1,2,3,5,6,7-hexahydro-s-indacen-4-yl)urea]: 1 to 5 µM.
